Key:
[1] = test system: leukemic blasts from patients (AML or CML in blast crisis); experiment: proliferation of patient leukemic blasts; format: cell-based; settings: Homo sapiens
Experimental: Cell Growth: IL-3-transfected M07e cells have been described by Thacker, D. J., et al., Leukemia 8: 871-877 (1994). Cells were grown in RPMI supplemented with 5 percent heat-inactivated fetal bovine serum (FBS) and 25 μg/ml gentamycin in a […], 5% CO2, and 100% humidity environment. Leukemic cells were obtained from patients who met the criteria for the diagnosis of AML or CML in blast crisis (see Table 1). Studies were approved by the Wayne State University Institutional Review Board. Informed consent was obtained from all patients. Leukemic blasts from patients were isolated using Ficoll hypaque. Cells at the interface between plasma and red blood cells were diluted with sterile PBS, then layered over Ficoll hypaque (1.077 density), and the leukemic cells collected at the interface. The sample to be studied represented greater than 90% blasts. The patient leukemia samples were grown in RPMI medium supplemented with 10% FBS, gentamycin (25 μg/ml), IL-3 (20 ng/ml), SCF (25 ng/ml), GM-CSF (20 ng/ml) and G-CSF (20 ng/ml). Cell growth was assessed using a cell proliferation kit.

[2] = test system: ERK, p38 and JNK kinases in M07e and patient leukemic cells; experiment: activation of MAPK pathways (phospho-p38, phospho-ERK, phospho-JNK Western blots); format: cell-based, human; settings: 1 μM
Experimental: Western Blots: Western blots were performed according to the protocol of Sheikh, M. S., et al., (Oncogene, 9: 3407-3415 (1994)). Logarithmically growing cells were treated with 3-Cl-AHPC for various times and cells were harvested and lysed in Laemmli lysis buffer (0.5 M Tris-HCl, pH 6.8, 0.002M EDTA, 10% glycerol, 10% sodium dodecyl sulfate (SDS), and 5% β-mercaptoethanol). Protein lysates (50 μg/lane) were electrophoresed on 12% SDS-polyacrylamide gels and transferred to nitrocellulose membranes. Membranes were blocked with 5% nonfat dried milk in PBS/0.5% Tween 20 and then incubated with the appropriate antibodies. Horseradish peroxidase-conjugated rabbit anti-mouse IgG was used as the secondary antibody, and bands were developed using the Amersham ECL non-radioactive method.

[3] = test system: human acute megakaryocytic leukemia cell line M07e; experiment: M07e apoptosis quantification; format: cell-based
Experimental: Apoptosis Quantification: Staining of apoptotic cells was performed as described by Gavreli, Y., et al., (J. Cell. Biol. 119: 493-501 (1992)) and Whitacre, C. M., et al., (Cancer Res. 55: 3697-3701 (1995)). After 3-Cl-AHPC treatment, cells were harvested, washed with PBS and resuspended at 1×10^6 cells/ml. Cell suspensions (50 μl) were stained with […] of acridine orange solution ([…]) in PBS in the dark. Cells displaying fragmented DNA were detected using a fluorescent microscope. Apoptotic cells were also detected using a kit. Cells that incorporated fluorescein labeled deoxyuridine triphosphate were detected using flow cytometry.

[4] = test system: caspases in patient leukemic cells; experiment: caspase activation in patient leukemic cells; format: cell-based, human; settings: 1 μM
Experimental: Activation of caspases-1, -2, -3, -6, -8 and -9 was assessed using a caspase activation kit.

[5] = test system: mouse CFU-GM; experiment: CFU-GM colony formation, mouse bone marrow; format: cell-based
Experimental: (§1) CFU-GM Colony Formation: The CFU-GM colony assay was performed as described in Parchment et al., (J. Natl. Cancer Inst. 86: 273-280 (1994)).

[6] = CFU-GM colony formation, mouse bone marrow; format: cell-based; settings: mouse, bone marrow CFU-GM progenitor cells
Experimental: as §1

[7] = CFU-GM colony formation, human bone marrow; format: cell-based; settings: bone marrow CFU-GM progenitor cells
Experimental: as §1

[8] = test system: mouse mammary adenocarcinoma 16/C; experiment: mouse mammary adenocarcinoma 16/C in syngeneic female C3H mice
Experimental: The ability of 3-Cl-AHPC to inhibit the in vivo growth of breast carcinoma cells was tested using syngeneic mouse mammary and human breast adenocarcinoma SCID xenograft models.

[9] = total dose 44 mg/kg, days 1-4, 6-8
[10] = total dose 89 mg/kg, days 1-4, 6-8
[11] = total dose 178 mg/kg, days 1-4, 6, 8

Structure (SMILES): O=C(O)/C=C/c1ccc(-c2ccc(O)c(C34CC5CC(CC(C5)C3)C4)c2)c(Cl)c1 [Example 3-Cl-AHPC, (E)-4-[3-(1-Adamantyl)-4-hydroxyphenyl]-3-chlorocinnamic acid]
- inhibition at 1 µM [1]: 60 to 90%
- activation of ERK, p38 and JNK kinases [2]: inactivation of ERK, p38 and JNK kinases
- apoptosis ([3]; 0.2 μM): no significant increase in apoptosis
- apoptosis ([3]; 0.5 and 1.0 μM): onset of apoptosis
- concentration required to induce apoptosis ([3]; M07e cells): 0.5 µM
- activation of caspase-2 [4]: 6 fold
- activation of caspase-5 [4]: two-fold
- activation of caspase-6 [4]: 4 fold
- activation of caspase-8 [4]: 4 fold
- activation of caspase-9 [4]: two-fold
- activation of caspase-3 ([4]; 24 hours): 8 fold
- activation of caspase-3 ([4]; 48 hours): 14 fold
- toxicity to mouse relative to human CFU-GM [5]: 30 fold
- IC90 [6]: 315 to 794 nM
- IC90 [7]: > 15 µM
- inhibition of tumor growth ([8]; T/C=20%): 80%
- toxicity as evidenced by weight loss of the mice ([8]; compared to AHPN): minimal toxicity
- % body wt. loss [8, 9]: 4%
- Drug deaths [8, 9]: 0/5
- T/C % [8, 9]: >100%
- % body wt. loss [8, 10]: −3%
- Drug deaths [8, 10]: 0/5
- T/C % [8, 10]: 47%
- % body wt. loss [8, 11]: −4%
- Drug deaths [8, 11]: 0/5
- Log cell kill [8, 11]: 0.9
- T/C % [8, 11]: 20%
